# Laboratory results as given in patent US4535075A, “Dithiolane derivative, process for producing the same and use thereof” (Nihon Nohyaku Co., Ltd., priority 1982, dated 1985).
# Columns and labels:
# [1] = tested on: liver damage induced by α-naphthyl isothiocyanate (ANIT); assay: Protective effect on liver damage induced by ANIT (Method 1); format: in vivo, mice; conditions: 2 x 250 mg/kg p.o., ANIT 35 mg/kg p.o., 24 h
# Description: (§1) Protective effect on liver damage induced by α-naphthyl isothiocyanate (referred to as "ANIT", hereinafter).
# It is well known that experimental cholestasis is accomplished by administration with ANIT in mice and rats, and studied as a cholestasis model in human being.
# ANIT and CCl4 induce necrosis in the liver. ANIT causes it as small focci in perilobular parenchyna and CCl4 causes centrilobular parenchymal coagulation necrosis.
# From these information, the elevation of plasma GPT activity in these models are thought to have defferent characteristics.
# Test compounds, dissolved or suspended in olive oil or diethyleneglycol, were orally administered 2 times at intervals of 3 hrs to mice at the dose of 250 mg/kg. At 3 hrs after the second administration with test compounds, ANIT was administered orally at 35 mg/kg.
# Mice were sacrificed at 24 hrs after ANIT administration and blood samples were collected. The blood samples were centrifuged and plasma was obtained.
# Plasma GPT activity and alkaline phosphatase activity were determined by Reitman & Frankel's method and Bessey-Lowry's method, respectively. The activity was expressed with Karmen Unit and Bessey-Lowry Unit, respectively.
# [2] = tested on: fatty liver induced by carbon tetrachloride; assay: Protective effect on fatty liver (carbon tetrachloride); format: in vivo, rats (SD strain); conditions: percentage of mean value in carbon tetrachloride alone group, 100 mg/kg/day p.o. for 4 days, control 32.0
# Protocol: Carbon tetrachloride also induces fatty liver. Carbon tetrachloride is generally considered to damage microsome and thereby to inhibit protein synthesis and induce fatty liver.
# Carbon tetrachloride was subcutaneously administered to 5-6 week-old male rats (SD strain) for 4 days at the dose of 0.5 ml/kg/day.
# Simultaneously, the compound of the present invention was orally administered to the rats for 4 days at the dose of 30 mg/kg/day or 100 mg/kg/day.
# On the 5th day, the rats were sacrificed by exsanguination.
# The controlling (protective) effect was evaluated by determining the content of triglyceride in the liver.
# Triglyceride was determined colorimetrically by chromotropic acid method.
# Each value represented the percentage of mean value in carbon tetrachloride alone group.
# [3] = tested on: liver damage induced by carbon tetrachloride; assay: Protective (Controlling) effect on liver damage induced by carbon tetrachloride; format: in vivo, mice (dd strain); conditions: 250 mg/kg p.o., CCl4 0.05 ml/kg after 6 h, 24 h; for p-GPT: CCl4 alone >2,100; for Liver Damage Index: average of 5 mice, 0 Normal, 2 Slightly recognized, 4 Clearly observable damage, 6 Heavy damage, CCl4 alone 5.0
# Description: Protective (Controlling) Effect on liver damage induced by carbon tetrachloride.
# Carbon tetrachloride administration induces centrilobular necrosis of the liver associated with loss of diphosphopyridine nucleotide, hepatic glycogen, coenzyme A and increase in neutral fat. Release of several enzymes from the hepatocytes, and increases of enzyme activities in the plasma are recognized as the result of the damage of the liver.
# A suitable means for evaluating the degree induced by carbon tetrachloride or the degree of protection afforded by drugs is to study the plasma glutamic-pyruvic transaminase (p-GPT) activity. […]
# After 6 hours, carbon tetrachloride was administered orally 0.05 ml/kg.
# Animals were killed 24 hours after carbon tetrachloride administration, and the liver was grossly observed.
# The plasma was obtained by centrifugation. Activity of p-GPT were determined by the method of Reitman and Frankel and expressed in Karmen units.
# Score for liver damage index was as follows:
# 1 Each figure indicated average of 5 mice.
# [4] = acute oral toxicity (LD50); conditions: in vivo, male rat
# Protocol: The compounds represented by the general formula (I) are low in toxicity to mammals.
# Their acute oral toxicities to male rat expressed as LD50 values are shown below.
# For example, the LD50 values of the compound No. 1, No. 2, No. 3, No. 8 and No. 12 are 1,000-3,000 mg/kg, 3,000-5,000 mg/kg, more than 5,000 mg/kg, more than 5,000 mg/kg and 1,000-3,000 mg/kg, respectively.
# [5] = tested on: liver damage induced by α-naphthyl isothiocyanate (ANIT); assay: Protective effect on liver damage induced by ANIT (Method 2); format: in vivo, mice (dd strain); conditions: 250 mg/kg p.o., ANIT 35 mg/kg p.o. after 6 h, 24 h
# Protocol: as §1
# Test compounds, dissolved or suspended in olive oil or diethyleneglycol, were orally administered at the dose of 250 mg/kg to the mice (Six or Seven-week-old male mice-dd strain).
# After 6 hours, ANIT dissolved in olive oil, was aministered orally at 35 mg/kg.
# Mice were sacrificed at 24 hours after ANIT administration and blood samples were collected. The blood samples were centrifuged and plasma was obtained.
# Plasma GPT activity and alkaline phosphatase activity were determined by Reitman & Frankel's method and Bessey-Lowry's method, respectively.
# The activity was expressed with Karmen Unit and Bessey-Lowry Unit, respectively.
# [6] = Table 3-1, control 3.3, ANIT alone 5.3
# [7] = Table 3-1, control 7.4, ANIT alone 324.0
# [8] = Table 3-3, control 2.9, ANIT alone >9.6
# [9] = Table 3-3, control 17.5, ANIT alone >460.2
# [10] = Table 3-4, control 3.7, ANIT alone 4.5
# [11] = Table 3-4, control 11.3, ANIT alone 300.3
Structure (SMILES),p-GPT [3],Liver Damage Index [3],"Alkaline phosphatase activity [5, 8]","p-GPT [5, 9]",also measured
CC(C)COC(=O)C(C(=O)OCC(C)C)=C1SC(O)C(O)S1 (centres unmarked) [Compound 5],135 Karmen units,0.0,,,"Alkaline phosphatase activity ([1]; Table 3-2, ANIT alone 5.3): 3.5 B-L.V.; p-GPT ([1]; Table 3-2, ANIT alone >653.7): 134.8 K.U.; Triglyceride [2]: 40.0%"
CCCCCOC(=O)C(C(=O)OCCCCC)=C1SC(O)C(O)S1 (centres unmarked) [Compound 8],21 Karmen units,0.0,,,"Alkaline phosphatase activity [1, 6]: 4.3 B-L.V.; p-GPT [1, 7]: 56.0 K.U.; LD50 [4]: > 5000 mg/kg"
"COCC(C)OC(=O)C(C(=O)OC(C)COC)=C1SC(O)C(O)S1 (centres unmarked) [Compound 15, bis(3-methoxypropan-2-yl)4,5-dihydroxy-1,3-dithiolan-2-ylidenemalonate]",39 Karmen units,0.0,,,"Alkaline phosphatase activity ([1]; Table 3-2, ANIT alone 5.3): 3.7 B-L.V.; p-GPT ([1]; Table 3-2, ANIT alone >653.7): 134.5 K.U."
CCC(COC)OC(=O)C(C(=O)OC(CC)COC)=C1SC(O)C(O)S1 (centres unmarked) [Compound 16],30 Karmen units,0.2,,,"Alkaline phosphatase activity ([1]; Table 3-2, ANIT alone 5.3): 5.0 B-L.V.; p-GPT ([1]; Table 3-2, ANIT alone >653.7): 275.2 K.U."
CCCOC(=O)C(C(=O)OCC)=C1SC(O)C(O)S1 (centres unmarked) [Compound 17],40 Karmen units,0.6,,,"Alkaline phosphatase activity [1, 6]: 4.8 B-L.V.; p-GPT [1, 7]: 242.0 K.U."
CCCCOC(=O)C(C(=O)OCC)=C1SC(O)C(O)S1 (centres unmarked) [Compound 18],28 Karmen units,0.0,,,"Alkaline phosphatase activity [1, 6]: 4.8 B-L.V.; p-GPT [1, 7]: 180.8 K.U."
CCOC(=O)C(C(=O)OCC(C)C)=C1SC(O)C(O)S1 (centres unmarked) [Compound 19],9 Karmen units,0.4,,,"Alkaline phosphatase activity [1, 6]: 5.1 B-L.V.; p-GPT [1, 7]: 170.5 K.U."
CCCOC(=O)C(C(=O)OC(C)C)=C1SC(O)C(O)S1 (centres unmarked) [Compound 20],30 Karmen units,0.4,,,"Alkaline phosphatase activity [1, 6]: 4.0 B-L.V.; p-GPT [1, 7]: 163.4 K.U."
CCCCOC(=O)C(C(=O)OC(C)C)=C1SC(O)C(O)S1 (centres unmarked) [Compound 21],9 Karmen units,0.0,,,"Alkaline phosphatase activity [1, 6]: 4.5 B-L.V.; p-GPT [1, 7]: 293.1 K.U."
CC(C)COC(=O)C(C(=O)OC(C)C)=C1SC(O)C(O)S1 (centres unmarked) [Compound 22],9 Karmen units,0.0,,,"Alkaline phosphatase activity [1, 6]: 5.0 B-L.V.; p-GPT [1, 7]: 221.0 K.U."
COC(=O)C(C(C)=O)=C1SC(O)C(O)S1 (centres unmarked) [Compound 34],31 Karmen units,0.0,4.2 B-L.V.,32.7 K.U.,
CCOC(=O)C(C(C)=O)=C1SC(O)C(O)S1 (centres unmarked) [Compound 35],92 Karmen units,0.0,4.6 B-L.V.,> 245.0 K.U.,
CCCOC(=O)C(C(C)=O)=C1SC(O)C(O)S1 (centres unmarked) [Compound 36],30 Karmen units,0.2,3.9 B-L.V.,60.0 K.U.,
"CC(=O)C(C(=O)OC(C)C)=C1SC(O)C(O)S1 (centres unmarked) [Compound 37, isopropyl 4,5-dihydroxy-1,3-dithiolan-2-ylideneacetoacetate]",149 Karmen units,0.4,4.4 B-L.V.,177.4 K.U.,
CCCCOC(=O)C(C(C)=O)=C1SC(O)C(O)S1 (centres unmarked) [Compound 38],31 Karmen units,0.0,5.3 B-L.V.,29.4 K.U.,
CC(=O)C(C(=O)OCC(C)C)=C1SC(O)C(O)S1 (centres unmarked) [Compound 39],19 Karmen units,0.2,6.8 B-L.V.,70.7 K.U.,
CCC(C)OC(=O)C(C(C)=O)=C1SC(O)C(O)S1 (centres unmarked) [Compound 40],172 Karmen units,0.4,5.2 B-L.V.,272.5 K.U.,
CC(=O)C(C(=O)OC(C)(C)C)=C1SC(O)C(O)S1 (centres unmarked) [Compound 41],105 Karmen units,0.6,6.0 B-L.V.,132.7 K.U.,
CCCCCOC(=O)C(C(C)=O)=C1SC(O)C(O)S1 (centres unmarked) [Compound 42],31 Karmen units,0.0,4.8 B-L.V.,30.8 K.U.,
CC(=O)C(C(=O)OCCC(C)C)=C1SC(O)C(O)S1 (centres unmarked) [Compound 43],36 Karmen units,0.2,5.9 B-L.V.,298.9 K.U.,
CC(=O)C(C(=O)OC1CCCCC1)=C1SC(O)C(O)S1 (centres unmarked) [Compound 44],73 Karmen units,0.4,5.1 B-L.V.,140.2 K.U.,
C=CCOC(=O)C(C(C)=O)=C1SC(O)C(O)S1 (centres unmarked) [Compound 45],13 Karmen units,0.0,5.6 B-L.V.,136.9 K.U.,
C#CCOC(=O)C(C(C)=O)=C1SC(O)C(O)S1 (centres unmarked) [Compound 46],16 Karmen units,0.0,5.3 B-L.V.,29.9 K.U.,
COCCOC(=O)C(C(C)=O)=C1SC(O)C(O)S1 (centres unmarked) [Compound 47],25 Karmen units,0.2,4.2 B-L.V.,40.1 K.U.,
CC(=O)C(C(=O)OCc1ccccc1)=C1SC(O)C(O)S1 (centres unmarked) [Compound 48],18 Karmen units,0.0,4.1 B-L.V.,36.8 K.U.,
CCCC(=O)C(C(=O)OCC)=C1SC(O)C(O)S1 (centres unmarked) [Compound 50],75 Karmen units,1.2,,,"Alkaline phosphatase activity [5, 10]: 3.0 B-L.V.; p-GPT [5, 11]: 18.5 K.U."
CCCCC(=O)C(C(=O)OCC)=C1SC(O)C(O)S1 (centres unmarked) [Compound 52],25 Karmen units,0.4,,,"Alkaline phosphatase activity [5, 10]: 3.8 B-L.V.; p-GPT [5, 11]: 24.1 K.U."
